Test results from ChEMBL document CHEMBL1136147, “Sub-nanomolar hMC1R agonists by end-capping of the melanocortin tetrapeptide His-D-Phe-Arg-Trp-NH(2)” (Bioorg Med Chem Lett, 2003).

Assays:
[1] = target: T1, Melanocyte-stimulating hormone receptor (Homo sapiens, UniProt Q01726); assay: In vitro agonist potency was evaluated in HEK293 cells transfected with human melanocortin receptor (hMC1R); assay type: functional, cell-based
Melanocortin receptor 3 [2] = target: T2, Melanocortin receptor 3 (Homo sapiens, UniProt P41968); assay: In vitro agonist potency was evaluated in HEK293 cells transfected with human melanocortin receptor (hMC3R); assay type: functional, cell-based
Melanocortin receptor 3 [3] = target: T2, Melanocortin receptor 3; assay: Binding affinity towards human Melanocortin 3 receptor (hMC3R)
Melanocortin receptor 4 [4] = target: T3, Melanocortin receptor 4 (Homo sapiens, UniProt P32245); assay: Binding affinity towards human melanocortin 4 receptor (hMC4R)
Melanocortin receptor 4 [5] = target: T3, Melanocortin receptor 4; assay: In vitro agonist potency was evaluated in HEK293 cells transfected with human melanocortin receptor (hMC4R); assay type: functional, cell-based
[6] = target: T1, Melanocyte-stimulating hormone receptor; assay: Binding affinity towards human Melanocortin 1 receptor (hMC1R)

T2 sequence (P41968 whole entry): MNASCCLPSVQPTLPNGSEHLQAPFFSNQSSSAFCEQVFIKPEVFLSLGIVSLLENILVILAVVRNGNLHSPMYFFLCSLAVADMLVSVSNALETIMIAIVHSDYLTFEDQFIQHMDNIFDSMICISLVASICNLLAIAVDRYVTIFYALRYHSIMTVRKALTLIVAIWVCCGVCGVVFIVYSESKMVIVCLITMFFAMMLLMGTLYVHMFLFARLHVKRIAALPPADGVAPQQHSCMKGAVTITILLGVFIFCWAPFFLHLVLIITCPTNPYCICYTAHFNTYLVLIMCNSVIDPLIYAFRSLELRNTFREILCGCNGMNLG
T3 sequence (P32245 whole entry): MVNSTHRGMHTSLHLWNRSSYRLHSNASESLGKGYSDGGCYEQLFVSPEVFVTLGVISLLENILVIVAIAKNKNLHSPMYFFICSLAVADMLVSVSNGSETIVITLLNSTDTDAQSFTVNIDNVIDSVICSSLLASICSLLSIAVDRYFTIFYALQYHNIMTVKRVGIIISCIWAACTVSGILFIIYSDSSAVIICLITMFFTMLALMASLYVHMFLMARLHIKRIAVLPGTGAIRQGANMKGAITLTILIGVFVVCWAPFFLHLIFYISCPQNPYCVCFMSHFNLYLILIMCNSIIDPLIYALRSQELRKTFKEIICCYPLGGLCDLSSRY
T1 sequence (Q01726 whole entry): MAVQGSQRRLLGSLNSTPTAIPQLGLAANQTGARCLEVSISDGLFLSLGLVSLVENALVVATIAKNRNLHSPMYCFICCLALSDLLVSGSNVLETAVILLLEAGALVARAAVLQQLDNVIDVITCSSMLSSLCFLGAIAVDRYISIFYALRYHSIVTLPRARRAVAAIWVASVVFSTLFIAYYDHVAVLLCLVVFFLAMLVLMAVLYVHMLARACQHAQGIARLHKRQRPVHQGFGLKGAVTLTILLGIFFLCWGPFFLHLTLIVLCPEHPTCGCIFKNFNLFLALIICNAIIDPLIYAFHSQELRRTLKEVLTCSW

| Structure (SMILES) | EC50 [1] | EC50 (Melanocortin receptor 3 [2]) | Ki (Melanocortin receptor 3 [3]) | Ki (Melanocortin receptor 4 [4]) | EC50 (Melanocortin receptor 4 [5]) | Ki [6] |
| --- | --- | --- | --- | --- | --- | --- |
| CCCC(=O)N[C@@H](Cc1cnc[nH]1)C(=O)N[C@@H](Cc1ccccc1)C(=O)N[C@@H](CCCNC(=N)N)C(=O)N[C@@H](Cc1c[nH]c2ccccc12)C(N)=O | 4.5 nM | 93.3 nM | 580 nM | 150 nM | 38.5 nM | 37.5 nM |
| N=C(N)NCCC[C@H](NC(=O)[C@H](Cc1ccccc1)NC(=O)[C@H](Cc1c[nH]cn1)NC(=O)C(O)Cc1ccccc1)C(=O)N[C@@H](Cc1c[nH]c2ccccc12)C(N)=O (some centres undefined) | 8 nM | 40.5 nM | 140 nM | 15.5 nM | 6.3 nM | 11.5 nM |
| CC(C)C(=O)N[C@@H](Cc1cnc[nH]1)C(=O)N[C@@H](Cc1ccccc1)C(=O)N[C@@H](CCCNC(=N)N)C(=O)N[C@@H](Cc1c[nH]c2ccccc12)C(N)=O | 7 nM | 130 nM | 280 nM | 97.5 nM | 24 nM | 40 nM |
| COCC(=O)N[C@@H](Cc1cnc[nH]1)C(=O)N[C@@H](Cc1ccccc1)C(=O)N[C@@H](CCCNC(=N)N)C(=O)N[C@@H](Cc1c[nH]c2ccccc12)C(N)=O | 9.5 nM | 570 nM | 380 nM | 350 nM | 42.5 nM | 91.5 nM |
| CC(C)(C)C(=O)N[C@@H](Cc1cnc[nH]1)C(=O)N[C@@H](Cc1ccccc1)C(=O)N[C@@H](CCCNC(=N)N)C(=O)N[C@@H](Cc1c[nH]c2ccccc12)C(N)=O | 5 nM | 13 nM | 130 nM | 160 nM | 14.5 nM | 43 nM |
| N=C(N)NCCC[C@H](NC(=O)[C@H](Cc1ccccc1)NC(=O)[C@H](Cc1c[nH]cn1)NC(=O)CO)C(=O)N[C@@H](Cc1c[nH]c2ccccc12)C(N)=O | 7 nM | 300 nM | 630 nM | 440 nM | 53 nM | 125 nM |
| N=C(N)NCCC[C@H](NC(=O)[C@H](Cc1ccccc1)NC(=O)[C@H](Cc1c[nH]cn1)NC(=O)c1ccccc1)C(=O)N[C@@H](Cc1c[nH]c2ccccc12)C(N)=O | 6.8 nM | 98.3 nM | 260 nM | 160 nM | 28 nM | 30 nM |
| CSCC(=O)N[C@@H](Cc1cnc[nH]1)C(=O)N[C@@H](Cc1ccccc1)C(=O)N[C@@H](CCCNC(=N)N)C(=O)N[C@@H](Cc1c[nH]c2ccccc12)C(N)=O | 9 nM | 230 nM | 230 nM | 210 nM | 41 nM | 57.5 nM |
| N=C(N)NCCC[C@H](NC(=O)[C@H](Cc1ccccc1)NC(=O)[C@H](Cc1cnc[nH]1)NC(=O)C(N)=O)C(=O)N[C@@H](Cc1c[nH]c2ccccc12)C(N)=O | 7 nM | 58 nM | 160 nM | 140 nM | 16.5 nM | 62 nM |
| N=C(N)NCCC[C@H](NC(=O)[C@H](Cc1ccccc1)NC(=O)[C@H](Cc1cnc[nH]1)NC(=O)C1CC1)C(=O)N[C@@H](Cc1c[nH]c2ccccc12)C(N)=O | 3.5 nM | 71 nM | 210 nM | 87 nM | 20.5 nM | 43 nM |
| CCCCC(=O)N[C@@H](Cc1cnc[nH]1)C(=O)N[C@@H](Cc1ccccc1)C(=O)N[C@@H](CCCNC(=N)N)C(=O)N[C@@H](Cc1c[nH]c2ccccc12)C(N)=O | 2 nM | 45 nM | 170 nM | 120 nM | 26.5 nM | 20.5 nM |
| CCC(=O)N[C@@H](Cc1c[nH]cn1)C(=O)N[C@@H](Cc1ccccc1)C(=O)N[C@@H](CCCN=C(N)N)C(=O)N[C@@H](Cc1c[nH]c2ccccc12)C(N)=O | 7.5 nM | 450 nM | 540 nM | 160 nM | 38.5 nM | 47.5 nM |
| N=C(N)NCCC[C@H](NC(=O)[C@H](Cc1ccccc1)NC(=O)[C@H](Cc1c[nH]cn1)NC(=O)COc1ccc(Cl)cc1)C(=O)N[C@@H](Cc1c[nH]c2ccccc12)C(N)=O | 2 nM | 6 nM | 110 nM | 68 nM | 11.5 nM | 6 nM |
| NC(=O)[C@H](Cc1c[nH]c2ccccc12)NC(=O)[C@H](CCCN=C(N)N)NC(=O)[C@@H](Cc1ccccc1)NC(=O)[C@H](Cc1cnc[nH]1)NC(=O)CCCc1ccccc1 | 0.009 nM | – | 13.5 nM | – | – | 0.006 nM |
| N=C(N)NCCC[C@H](NC(=O)[C@H](Cc1ccccc1)NC(=O)[C@H](Cc1c[nH]cn1)NC(=O)CCc1ccccc1)C(=O)N[C@@H](Cc1c[nH]c2ccccc12)C(N)=O | 0.5 nM | 17 nM | 65 nM | 49 nM | 20 nM | 6 nM |
| CC(=O)N[C@@H](Cc1c[nH]cn1)C(=O)N[C@@H](Cc1ccccc1)C(=O)N[C@@H](CCCN=C(N)N)C(=O)N[C@@H](Cc1c[nH]c2ccccc12)C(N)=O | 13 nM | 170 nM | 770 nM | – | – | 37 nM |
| N=C(N)NCCC[C@H](NC(=O)[C@H](Cc1ccccc1)NC(=O)[C@H](Cc1c[nH]cn1)NC(=O)CC(F)(F)F)C(=O)N[C@@H](Cc1c[nH]c2ccccc12)C(N)=O | 6.5 nM | 120 nM | 540 nM | 170 nM | 22.5 nM | 63.5 nM |
| CS(=O)(=O)N[C@@H](Cc1c[nH]cn1)C(=O)N[C@@H](Cc1ccccc1)C(=O)N[C@@H](CCCN=C(N)N)C(=O)N[C@@H](Cc1c[nH]c2ccccc12)C(N)=O | 88 nM | 840 nM | 1900 nM | 170 nM | 21.5 nM | 260 nM |
| N=C(N)NCCC[C@H](NC(=O)[C@H](Cc1ccccc1)NC(=O)[C@H](Cc1cnc[nH]1)NC(=O)CCCO)C(=O)N[C@@H](Cc1c[nH]c2ccccc12)C(N)=O | 13.7 nM | 640 nM | 440 nM | 100 nM | 21.3 nM | 34 nM |
| N#CCC(=O)N[C@@H](Cc1c[nH]cn1)C(=O)N[C@@H](Cc1ccccc1)C(=O)N[C@@H](CCCNC(=N)N)C(=O)N[C@@H](Cc1c[nH]c2ccccc12)C(N)=O | 8 nM | 160 nM | 350 nM | 110 nM | 18 nM | 86.5 nM |
| N=C(N)NCCC[C@H](NC(=O)[C@H](Cc1ccccc1)NC(=O)[C@H](Cc1c[nH]cn1)NC(=O)Cc1ccccc1)C(=O)N[C@@H](Cc1c[nH]c2ccccc12)C(N)=O | 2 nM | 28 nM | 66.5 nM | 100 nM | 13 nM | 17.5 nM |
| N=C(N)NCCC[C@H](NC(=O)[C@H](Cc1ccccc1)NC(=O)[C@@H](N)Cc1cnc[nH]1)C(=O)N[C@@H](Cc1c[nH]c2ccccc12)C(N)=O | 31.8 nM | 350 nM | 890 nM | 180 nM | 29.7 nM | 51 nM |
| N=C(N)NCCC[C@H](NC(=O)[C@H](Cc1ccccc1)NC(=O)[C@H](Cc1cnc[nH]1)NS(=O)(=O)c1ccc(Cl)cc1)C(=O)N[C@@H](Cc1c[nH]c2ccccc12)C(N)=O | 33.3 nM | 390 nM | 440 nM | 66.5 nM | 11 nM | 170 nM |
| N=C(N)NCCC[C@H](NC(=O)[C@H](Cc1ccccc1)NC(=O)[C@H](Cc1cnc[nH]1)NC(=O)Cc1ccc(Cl)cc1)C(=O)N[C@@H](Cc1c[nH]c2ccccc12)C(N)=O | 9.5 nM | 9.3 nM | 20 nM | 5 nM | 7.5 nM | 3.5 nM |
